Consider 46 molecules from ChEMBL document CHEMBL5252560 (Bioorg Med Chem Lett, 2023).

Common to all, as to format: functional, cell-based
One test relates to HepG2. Briefly: Antiproliferative activity against human HepG2 cells assessed as cell growth inhibition.
The subject of another test is U-937. The test is described as follows: Antiproliferative activity against human U-937 cells assessed as cell growth inhibition.
For another test, the system named is Y79. Briefly: Antiproliferative activity against human Y79 cells assessed as cell growth inhibition.
The subject of a further test is A549. The test is described as follows: Antiproliferative activity against human A549 cells assessed as cell growth inhibition.

Each structure is given as a SMILES string. pIC50: −log10 of the molar value.

With `COc1cc(C2=NOC(c3ccc4occc4c3)C2)cc(OC)c1OC` (centres undefined), the pIC50 in the test on HepG2, in the test with U-937, in the test on Y79 and in the test on A549 was less than 5.00 throughout.

`COc1cc(C2=NNC(c3ccc4c(c3)CCO4)C2)cc(OC)c1OC` (centres undefined): the pIC50 (in general, the IC50 on a negative log10 scale, so that one unit is a factor of ten) with HepG2 is 5.16; in the test on U-937, less than 5.00; in the test with Y79 it was less than 5.00; in the test on A549 it was less than 5.00.

For `COc1cc(C2=NOC(c3ccc4c(c3)CCO4)C2)cc(OC)c1OC` (centres undefined), the negative-log IC50 (pIC50) in the test with HepG2, in the test on U-937, in the test on Y79 and in the test on A549 was less than 5.00 throughout.

As for `COc1cc(-c2cc(-c3cccc4ccccc34)on2)cc(OC)c1OC`, the negative logarithm of the IC50 (pIC50) was less than 5.00 in the test with HepG2, 6.04 in the test with U-937, less than 5.00 in the test with Y79 and less than 5.00 in the test on A549.

For the molecule `COc1cc(C2=NOC(c3ccc4ncccc4c3)C2)cc(OC)c1OC` (centres undefined), the negative logarithm of the IC50 (pIC50) with HepG2, in the test on U-937, in the test with Y79 and in the test on A549 was less than 5.00 in each case.

With `COc1cc(C2=NOC(c3cccc4ccccc34)C2)cc(OC)c1OC` (centres undefined), the pIC50 in the test with HepG2, in the test on U-937, with Y79 and with A549 was less than 5.00 each time.

Consider `COc1cc(C2=NOC(c3cccc4c3OCO4)C2)cc(OC)c1OC` (centres undefined), for which the negative-log IC50 (pIC50) in the test with HepG2, in the test with U-937, with Y79 and with A549 was less than 5.00 throughout.

For `COc1cc(C2=NNC(c3ccc4[nH]ccc4c3)C2)cc(OC)c1OC` (centres undefined), the pIC50 was 5.47 in the test on HepG2, 6.02 in the test on U-937, less than 5.00 with Y79 and 5.55 in the test on A549.

As to `COC(=O)c1ccc2c(C3CC(c4cc(OC)c(OC)c(OC)c4)=NN3)c[nH]c2c1` (centres undefined), the pIC50 in the test on HepG2 is 5.20; in the test on U-937 it was 5.13; with Y79 it was less than 5.00; with A549, less than 5.00.

Take `COc1cc(C2=NNC(c3cc4ccccc4s3)C2)cc(OC)c1OC` (centres undefined): the negative-log IC50 (pIC50) in the test with HepG2, in the test on U-937, with Y79 and in the test with A549 was less than 5.00 each time.

Regarding `CCn1c2ccccc2c2cc(C3CC(c4cc(OC)c(OC)c(OC)c4)=NO3)ccc21` (centres undefined), the negative-log IC50 (pIC50) was 5.36 in the test with HepG2, 5.81 with U-937, less than 5.00 with Y79 and less than 5.00 with A549.

For the molecule `COC(=O)c1ccc2c(C3CC(c4cc(OC)c(OC)c(OC)c4)=NO3)c[nH]c2c1` (centres undefined), the negative-log IC50 (pIC50) with HepG2, with U-937, in the test on Y79 and in the test on A549 was less than 5.00 throughout.

In the case of `COc1cc(C2=NOC(c3ccc4[nH]ccc4c3)C2)cc(OC)c1OC` (centres undefined), the pIC50 was less than 5.00 with HepG2, 5.26 in the test with U-937, less than 5.00 in the test with Y79 and less than 5.00 in the test with A549.

On to `COc1cc(C2=NNC(c3ccc4ncccc4c3)C2)cc(OC)c1OC` (centres undefined), for which the pIC50 in the test on HepG2, in the test with U-937, with Y79 and with A549 was less than 5.00 each time.

Take `COc1cc(C2=NOC(c3cc4ccccc4o3)C2)cc(OC)c1OC` (centres undefined): the pIC50 with HepG2, with U-937, with Y79 and with A549 was less than 5.00 in each case.

Regarding `COc1cc(-c2cc(-c3ccc4c(c3)OCCO4)on2)cc(OC)c1OC`, the pIC50 with HepG2 is 5.08; in the test with U-937 it was 5.20; in the test with Y79 it was less than 5.00; with A549, 5.23.

Take `COc1cc(C2=NOC(c3csc4ccccc34)C2)cc(OC)c1OC` (centres undefined): the negative-log IC50 (pIC50) in the test on HepG2, in the test with U-937, in the test on Y79 and in the test on A549 was less than 5.00 throughout.

As for `COc1cc(C2=NNC(c3c[nH]c4ccccc34)C2)cc(OC)c1OC` (centres undefined), the negative-log IC50 (pIC50) in the test on HepG2 was 5.36; in the test with U-937, 5.46; with Y79, less than 5.00; in the test on A549, 5.15.

For `COc1cc(C2=NOC(c3ccc4oc5ccccc5c4c3)C2)cc(OC)c1OC` (centres undefined), the pIC50 in the test on HepG2, in the test with U-937, with Y79 and with A549 was less than 5.00 each time.

For the molecule `COc1cc(C(/C=C/c2cc3ccccc3s2)=N/O)cc(OC)c1OC`, the pIC50 in the test on HepG2 was 6.31; with U-937, 6.55; with Y79 it was less than 5.00; in the test with A549, less than 5.00.

With `COc1cc(C2=NNC(c3cccc4c3OCO4)C2)cc(OC)c1OC` (centres undefined), the pIC50 in the test with HepG2, with U-937, in the test on Y79 and in the test on A549 was less than 5.00 throughout.

On to `COc1cc(C2=NNC(c3ccc4occc4c3)C2)cc(OC)c1OC` (centres undefined), for which the pIC50 with HepG2, with U-937, in the test with Y79 and in the test with A549 was less than 5.00 in each case.

For the molecule `COc1cc(C2=NNC(c3cc4ccccc4o3)C2)cc(OC)c1OC` (centres undefined), the negative logarithm of the IC50 (pIC50) with HepG2, in the test on U-937, in the test on Y79 and in the test on A549 was less than 5.00 throughout.

In the case of `COc1cc(C2=NNC(c3coc4ccccc34)C2)cc(OC)c1OC` (centres undefined), the pIC50 in the test on HepG2, in the test with U-937, with Y79 and in the test on A549 was less than 5.00 throughout.

For `COc1cc(C(/C=C/c2ccc3ccccc3c2)=N/O)cc(OC)c1OC`, the negative logarithm of the IC50 (pIC50) in the test with HepG2 is 6.36; in the test on U-937, less than 5.13; with Y79, less than 5.00; in the test with A549 it was less than 5.00.

As to `COc1cc(C2=NNC(c3ccc4cc[nH]c4c3)C2)cc(OC)c1OC` (centres undefined), the pIC50 in the test with HepG2, with U-937, in the test with Y79 and in the test on A549 was less than 5.00 each time.

As for `COc1cc(C2=NNC(c3cccc4ccccc34)C2)cc(OC)c1OC` (centres undefined), the negative logarithm of the IC50 (pIC50) with HepG2, in the test on U-937, in the test with Y79 and in the test with A549 was less than 5.00 in each case.

For the molecule `COc1cc(C(/C=C/c2ccc3occc3c2)=N/O)cc(OC)c1OC`, the pIC50 is 6.75 with HepG2, 6.06 with U-937, 6.43 in the test with Y79 and less than 5.00 in the test with A549.

Consider `COc1cc(C2=NNC(c3ccc4oc5ccccc5c4c3)C2)cc(OC)c1OC` (centres undefined), for which the pIC50 in the test with HepG2, with U-937, in the test with Y79 and in the test on A549 was less than 5.00 throughout.

Consider `COc1cc(C2=NOC(c3ccc4ccccc4c3)C2)cc(OC)c1OC` (centres undefined), for which the negative logarithm of the IC50 (pIC50) in the test on HepG2 is 5.20; with U-937, less than 5.00; in the test with Y79, less than 5.00; with A549, less than 5.00.

As to `CCn1c2ccccc2c2cc(/C=C/C(=N\O)c3cc(OC)c(OC)c(OC)c3)ccc21`, the pIC50 in the test with HepG2 is 6.16; with U-937, 5.28; in the test with Y79, less than 5.00; in the test on A549 it was 5.71.

Regarding `COc1cc(C2=NOC(c3c[nH]c4ccccc34)C2)cc(OC)c1OC` (centres undefined), the pIC50 with HepG2 was 5.25; with U-937, 5.47; with Y79, less than 5.00; in the test with A549, less than 5.00.

For the molecule `COc1cc(C2=NOC(c3ccc4sc5ccccc5c4c3)C2)cc(OC)c1OC` (centres undefined), the negative-log IC50 (pIC50) was 5.78 in the test on HepG2, 6.63 in the test with U-937, less than 5.00 with Y79 and less than 5.00 in the test with A549.

On to `CCn1c2ccccc2c2cc(C3CC(c4cc(OC)c(OC)c(OC)c4)=NN3)ccc21` (centres undefined), for which the pIC50 in the test with HepG2 was 5.63; in the test with U-937, 5.71; in the test with Y79 it was less than 5.00; in the test on A549, less than 5.00.

With `COc1cc(C2=NNC(c3c[nH]c4cc(Br)ccc34)C2)cc(OC)c1OC` (centres undefined), the pIC50 in the test on HepG2 was 5.34; in the test on U-937 it was 5.91; with Y79, less than 5.00; in the test on A549 it was 5.47.

On to `COc1cc(-c2cc(-c3cccc4c3OCO4)on2)cc(OC)c1OC`, for which the pIC50 in the test on HepG2, in the test with U-937, in the test with Y79 and in the test on A549 was less than 5.00 each time.

In the case of `COc1cc(C2=NNC(c3csc4ccccc34)C2)cc(OC)c1OC` (centres undefined), the pIC50 in the test on HepG2, with U-937, in the test on Y79 and with A549 was less than 5.00 in each case.

As to `COc1cc(-c2cc(-c3ccc4ccccc4c3)on2)cc(OC)c1OC`, the negative-log IC50 (pIC50) in the test on HepG2, with U-937, in the test with Y79 and in the test with A549 was less than 5.00 each time.

In the case of `COc1cc(C(/C=C/c2ccc3oc4ccccc4c3c2)=N/O)cc(OC)c1OC`, the negative logarithm of the IC50 (pIC50) with HepG2 is less than 5.00; in the test with U-937, 5.03; in the test on Y79 it was less than 5.00; in the test on A549, less than 5.00.

In the case of `COc1cc(C(/C=C/c2ccc3ncccc3c2)=N/O)cc(OC)c1OC`, the negative-log IC50 (pIC50) in the test with HepG2 is 6.33; with U-937 it was 6.32; with Y79, less than 5.00; in the test on A549, 6.35.

On to `COc1cc(C2=NNC(c3ccc4ccccc4c3)C2)cc(OC)c1OC` (centres undefined), for which the negative logarithm of the IC50 (pIC50) in the test on HepG2, with U-937, with Y79 and in the test with A549 was less than 5.00 throughout.

Turning to `COc1cc(C(/C=C/c2cccc3ccccc23)=N/O)cc(OC)c1OC`, the negative-log IC50 (pIC50) was 6.22 with HepG2, 5.00 in the test with U-937, less than 5.00 in the test on Y79 and less than 5.00 in the test with A549.

Regarding `COc1cc(C(/C=C/c2ccc3sc4ccccc4c3c2)=N/O)cc(OC)c1OC`, the pIC50 is 6.13 in the test with HepG2, 5.86 in the test with U-937, less than 5.00 in the test with Y79 and less than 5.00 in the test with A549.

Turning to `COc1cc(C2=NOC(c3cc(OC)c(OC)c(OC)c3)C2)cc(OC)c1OC` (centres undefined), the negative logarithm of the IC50 (pIC50) with HepG2, in the test on U-937, in the test with Y79 and in the test with A549 was less than 5.00 each time.

With `COc1cc(C2=NNC(c3ccc4sc5ccccc5c4c3)C2)cc(OC)c1OC` (centres undefined), the pIC50 with HepG2, with U-937, in the test with Y79 and in the test with A549 was less than 5.00 each time.

In the case of `COc1cc(C2=NNC(c3ccc4c(c3)OCCO4)C2)cc(OC)c1OC` (centres undefined), the pIC50 in the test on HepG2, in the test with U-937, in the test on Y79 and in the test with A549 was less than 5.00 each time.
